The test concerns the target T1, CCK2 receptor (Homo sapiens, UniProt P32239).
T1 construct: Membranes were prepared from the HEKZFP cells after induction; endogenous in cells; host or cells: HEKZFP cells (T-REx-293 with tet-inducible ZFP-VP16 specific for the CCK2R gene), doxycycline-induced; membrane preparation
T1 sequence (P32239 1-447): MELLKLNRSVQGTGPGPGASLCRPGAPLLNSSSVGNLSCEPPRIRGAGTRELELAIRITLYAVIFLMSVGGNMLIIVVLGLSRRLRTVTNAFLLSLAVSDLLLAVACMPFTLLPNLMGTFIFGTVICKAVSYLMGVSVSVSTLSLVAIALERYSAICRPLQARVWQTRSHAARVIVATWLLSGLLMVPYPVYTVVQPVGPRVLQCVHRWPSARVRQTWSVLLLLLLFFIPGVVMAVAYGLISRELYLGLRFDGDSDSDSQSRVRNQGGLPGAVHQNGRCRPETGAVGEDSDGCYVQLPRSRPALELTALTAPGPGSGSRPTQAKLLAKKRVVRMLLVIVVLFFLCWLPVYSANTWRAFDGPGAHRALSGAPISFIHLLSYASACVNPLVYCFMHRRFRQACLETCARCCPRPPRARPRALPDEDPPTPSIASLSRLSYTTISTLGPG
Description: CCK2 receptor radioligand binding assay ([125I]-BH-CCK-8S, HEKZFP cell membranes). The note with it: competition with [125I]-BH-CCK-8S, membranes of induced HEKZFP cells, 60 min at 21±3° C., Cheng-Prusoff. The protocol: Zinc Finger Proteins (ZFP) specific for the CCK2R gene were identified by Sangamo Biosciences. The ZFP domain was fused with the herpes simplex virus VP16 activation domain, and the fusion protein was subsequently cloned into the pcDNA3 mammalian expression vector (Invitrogen, San Diego, Calif.). […] After 2 weeks of selection in culture medium containing […] Zeocin (Invitrogen), sixty drug-resistant stable clones were isolated and analyzed for ZFP expression as well as CCK2R induction upon addition of doxycycline to the culture medium.
HEKZFP cells were grown in DMEM supplemented with L-glutamine (2 mM), penicillin (50 units/mL) and streptomycin (50 μg/mL) and 10% FBS (v/v).
Membranes were prepared from the HEKZFP cells after induction. […] The thawed pellets were homogenized using a Polytron PT-10 (7×1 s). The homogenates were centrifuged for 5 min at 1500 rpm (600×g), and the resulting pellets were discarded. The supernatants were re-centrifuged in order to collect the receptor-membrane pellets (25 min 15,000 rpm; 39,800×g), which were re-suspended in buffer A.
The assay preparation was incubated for 1 h at 21±3° C., and then the assay was terminated by rapid filtration of the preparation under reduced pressure. The loaded filters were washed three times using undiluted PBS (100 μL), and then 100 μL of scintillation fluid was added to the filter plate. Bound radioactivity was determined using a Topcount (Packard BioScience, Meriden, Conn.) with a count time of 1 min. […] To validate the radioligand concentration and incubation time for the assay, saturation and kinetic binding studies were also conducted (see M. F. Morton, The Pharmacological Characterization of Cholecystokinin Receptors in the Human Gastrointestinal Tract. PhD Thesis, University of London, 2000). […] The assay was then terminated according to the procedure outlined above.
The pKi values were determined using the equation of Y.-C.
To circumvent problems associated with computer-assisted data analysis of compounds with low affinity, the data obtained in the current study were weighed according to a method described by Morton. In brief, 100% and 0% specific binding were defined independently using total binding and binding obtained in the presence of a high concentration of the reference antagonist, 2-NAP.

As usually defined, the Ki is a measure of affinity in units of concentration, obtained from inhibition or displacement. Low readings indicate a stronger hold on the target, high ones a looser hold on the target. Molecule `C[C@H](c1ccccc1)N(C)C(=O)c1ccc(I)cc1NS(=O)(=O)c1cccc2nccnc12` [Example 34, (R)-4-Iodo-N-methyl-N-(1-phenyl-ethyl)-2-(quinoxaline-5-sulfonylamino)-benzamide] had an inhibition constant Ki of 7.94 nM.

With `CN(Cc1ccc(F)cc1)C(=O)c1ccc(I)cc1NS(=O)(=O)c1cccc2nccnc12` [Example 35, N-(4-Fluorobenzyl)-4-iodo-N-methyl-2-(quinoxaline-5-sulfonylamino)-benzamide], the affinity corresponds to a Ki of 15.8 nM.

`C[C@@H](NC(=O)c1ccc(C(F)(F)F)cc1NS(=O)(=O)c1cccc2nccnc12)c1ccc(F)cc1F` [Example 36, (R)—N-[1-(2,4-Difluorophenyl)ethyl]-2-(quinoxaline-5-sulfonylamino)-4-trifluoromethylbenzamide] gave a Ki of 25.1 nM.

The molecule `C[C@@H](NC(=O)c1ccc(F)cc1NS(=O)(=O)c1cccc2nccnc12)c1ccc(Cl)cc1Cl` [Example 37, (R)—N-[1-(2,4-Dichlorophenyl)-ethyl]-4-fluoro-2-(quinoxaline-5-sulfonylamino)-benzamide] showed a Ki of 200 nM.

Molecule `C[C@@H](NC(=O)c1ccc(C#N)cc1NS(=O)(=O)c1cccc2nccnc12)c1ccc(F)cc1F` [Example 38, (R)-4-Cyano-N-[1-(2,4-difluoro-phenyl)ethyl]-2-(quinoxaline-5-sulfonylamino)-benzamide] had a Ki of 316 nM.

Regarding `O=C(c1ccc(Br)cc1NS(=O)(=O)c1cccc2nccnc12)N1CCOc2cc(F)ccc2C1` [Example 39, Quinoxaline-5-sulfonic acid [5-bromo-2-(8-fluoro-2,3-dihydro-5H-benzo[f][1,4]oxazepine-4-carbonyl)phenyl]-amide], the Ki is 79.4 nM.

In turn, `O=C(c1ccc(Cl)cc1NS(=O)(=O)c1cccc2nccnc12)N1CCOc2cc(F)cc(F)c2C1` [Example 40, Quinoxaline-5-sulfonic acid [5-chloro-2-(6,8-difluoro-2,3-dihydro-5H-benzo[f][1,4]oxazepine-4-carbonyl)-phenyl]-amide] showed a Ki of 251 nM.

Take `CN(Cc1ccccc1)C(=O)c1ccc(I)cc1NS(=O)(=O)c1cccc2nccnc12` [Example 42, N-Benzyl-4-iodo-N-methyl-2-(quinoxaline-5-sulfonylamino)-benzamide]: the Ki is 25.1 nM.

Molecule `C[C@@H](NC(=O)c1ccc(Cl)cc1NS(=O)(=O)c1cccc2nccnc12)c1ccc(Cl)cc1Cl` [Example 43, (R)-4-Chloro-N-[1-(2,4-dichloro-phenyl)-ethyl]-2-(quinoxaline-5-sulfonylamino)-benzamide] showed a Ki of 10 nM.

In the case of `CN(Cc1ccc(F)cc1)C(=O)c1ccc(Br)cc1NS(=O)(=O)c1cccc2nccnc12` [Example 45, 4-Bromo-N-(4-fluoro-benzyl)-N-methyl-2-(quinoxaline-5-sulfonylamino)-benzamide], the affinity, expressed as Ki, was 31.6 nM.

Molecule `CN(Cc1ccc(Cl)cc1)C(=O)c1ccc(I)cc1NS(=O)(=O)c1cccc2nccnc12` [Example 48, N-(4-Chloro-benzyl)-4-iodo-N-methyl-2-(quinoxaline-5-sulfonylamino)-benzamide] showed a Ki of 20 nM.

Take `CC(NC(=O)c1ccc(Br)cc1NS(=O)(=O)c1cccc2nccnc12)c1ccc(Cl)cc1` (stereo not shown) [Example 50, 4-Bromo-N-[1-(4-chloro-phenyl)-ethyl]-2-(quinoxaline-5-sulfonylamino)-benzamide]: the affinity corresponds to a Ki of 63.1 nM.

On to `CC(NC(=O)c1ccc(Br)cc1NS(=O)(=O)c1cccc2nccnc12)c1ccc(F)cc1` (stereo not shown) [Example 53, 4-Bromo-N-[1-(4-fluoro-phenyl)-ethyl]-2-(quinoxaline-5-sulfonylamino)-benzamide], for which the inhibition constant (Ki) was 25.1 nM.

On to `CC(NC(=O)c1ccc(I)cc1NS(=O)(=O)c1cccc2nccnc12)c1ccc(F)cc1` (stereo not shown) [Example 54, N-[1-(4-Fluoro-phenyl)-ethyl]-4-iodo-2-(quinoxaline-5-sulfonylamino)-benzamide], for which the inhibition constant Ki is 39.8 nM.

Broadly, the pKi is −log10 of the Ki, conventionally taken in molar units. The molecule `O=C(NCc1ccc(F)cc1F)c1ccc(I)cc1NS(=O)(=O)c1cccc2nccnc12` [Example 57, N-(2,4-Difluoro-benzyl)-4-iodo-2-(quinoxaline-5-sulfonylamino)-benzamide] displayed a pKi of 7.4.

Consider `O=C(NCc1ccc(Cl)cc1Cl)c1ccc(Cl)cc1NS(=O)(=O)c1cccc2nccnc12` [Example 58, 4-Chloro-N-(2,4-dichloro-benzyl)-2-(quinoxaline-5-sulfonylamino)-benzamide], for which the Ki was 63.1 nM.

`O=C(NCc1ccc(F)cc1Cl)c1ccc(Cl)cc1NS(=O)(=O)c1cccc2nccnc12` [Example 61, 4-Chloro-N-(2-chloro-4-fluoro-benzyl)-2-(quinoxaline-5-sulfonylamino)-benzamide]: the affinity, expressed as Ki, was 39.8 nM.

`C[C@H](c1ccccc1)N(C)C(=O)c1ccc(Cl)cc1NS(=O)(=O)c1cccc2nccnc12` [Example 62, (R)-4-Chloro-N-methyl-N-(1-phenyl-ethyl)-2-(quinoxaline-5-sulfonylamino)-benzamide] had a Ki of 15.8 nM.

The molecule `C[C@@H](NC(=O)c1ccc(I)cc1NS(=O)(=O)c1cccc2nccnc12)c1ccc(F)cc1` [Example 63, (R)-N-[1-(4-Fluoro-phenyl)-ethyl]-4-iodo-2-(quinoxaline-5-sulfonylamino)-benzamide] had a Ki of 31.6 nM.

`C[C@@H](NC(=O)c1ccc(I)cc1NS(=O)(=O)c1cccc2nccnc12)c1ccc(Cl)cc1Cl` [Example 64, (R)-N-[1-(2,4-Dichloro-phenyl)-ethyl]-4-iodo-2-(quinoxaline-5-sulfonylamino)-benzamide] gave a Ki of 25.1 nM.

In the case of `C[C@H](NC(=O)c1ccc(I)cc1NS(=O)(=O)c1cccc2nccnc12)c1ccc(Cl)cc1Cl` [Example 66, (S)-N-[1-(2,4-Dichloro-phenyl)-ethyl]-4-iodo-2-(quinoxaline-5-sulfonylamino)-benzamide], the affinity, expressed as Ki, was 50.1 nM.

As to `O=C(N[C@H](CF)c1ccc(F)cc1)c1ccc(Br)cc1NS(=O)(=O)c1cccc2nccnc12` [Example 71, (S)-4-Bromo-N-[2-fluoro-1-(4-fluoro-phenyl)-ethyl]-2-(quinoxaline-5-sulfonylamino)-benzamide], the inhibitory constant (Ki) was 79.4 nM.

The molecule `O=C(N[C@H](CF)c1ccc(F)cc1)c1ccc(Cl)cc1NS(=O)(=O)c1cccc2nccnc12` [Example 72, (S)-4-Chloro-N-[2-fluoro-1-(4-fluoro-phenyl)-ethyl]-2-(quinoxaline-5-sulfonylamino)-benzamide] showed a Ki of 100 nM.

Take `O=C(N[C@H](CF)c1ccc(F)cc1)c1ccc(I)cc1NS(=O)(=O)c1cccc2nccnc12` [Example 73, (S)-N-[2-Fluoro-1-(4-fluoro-phenyl)-ethyl]-4-iodo-2-(quinoxaline-5-sulfonylamino)-benzamide]: the affinity corresponds to a Ki of 79.4 nM.

`O=C(NC(CF)c1ccc(F)cc1F)c1ccc(Br)cc1NS(=O)(=O)c1cccc2nccnc12` (stereo not shown) [Example 74, 4-Bromo-N-[1-(2,4-difluoro-phenyl)-2-fluoro-ethyl]-2-(quinoxaline-5-sulfonylamino)-benzamide]: the Ki was 31.6 nM.

`O=C(NC(CF)c1ccc(F)cc1F)c1ccc(I)cc1NS(=O)(=O)c1cccc2nccnc12` (stereo not shown) [Example 75, N-[1-(2,4-Difluoro-phenyl)-2-fluoro-ethyl]-4-iodo-2-(quinoxaline-5-sulfonylamino)-benzamide] showed a Ki of 63.1 nM.

`O=C(N[C@H](CF)c1ccc(F)cc1F)c1ccc(Br)cc1NS(=O)(=O)c1cccc2nccnc12` [Example 76, (S)-4-Bromo-N-[1-(2,4-difluoro-phenyl)-2-fluoro-ethyl]-2-(quinoxaline-5-sulfonylamino)-benzamide] showed a Ki of 25.1 nM.

In turn, `O=C(N[C@H](CF)c1ccc(F)cc1F)c1ccc(I)cc1NS(=O)(=O)c1cccc2nccnc12` [Example 77, (S)-N-[1-(2,4-Difluoro-phenyl)-2-fluoro-ethyl]-4-iodo-2-(quinoxaline-5-sulfonylamino)-benzamide] showed a Ki of 50.1 nM.

(Values after patent publication US7563895B2, “Quinoxaline compounds” (Janssen Pharmaceutica, N.V., priority 2003, dated 2009).)
